Data: US12589090B2, “Compounds and methods for the treatment of degenerative disorders” (Aquilus Pharmaceuticals, Inc., priority 2019, dated 2026)

What was measured:
[1] = In-vivo oral PK of Compound 118 in SOD-1 mice (Example 19); design: species or system SOD-1-G93A (SOD-1) mice; conditions: for AUC / Cmax: SOD-1-G93A, mouse, po, PO 200 mg/Kg for 3 days
Experimental: The present example orally doses compound 118 once per day (SID) or twice per day (BID) for three days to a series of mice that have overexpression for the protein copper-zinc superoxide dismutase 1. Compound 118 was orally dosed in SOD-1-G93A (SOD-1) mice in a PK study. In summary, SOD-1 mice (At P100±4 days of age) received twice daily (BID) or once daily (SID) oral administration of 200 mg/Kg Compound 118 (as an aqueous suspension in 0.5% methylcellulose) for 3 days (Table 6). Plasma was collected from the tail vein at baseline (pre-dose), 15 min, 30 min, 1 h, 2 h, 4 h post-last PO dose on the third day. One animal from each group was euthanized 2 hrs. post dose on the third day of dosing where plasma, spinal cord, and brain tissue was collected post-mortem. The remaining 3 animals per group was euthanized six hours after the final dose on the third day, plasma, spinal cord, and brain tissue was then collected post-mortem. […] There was a significant difference in clearance of Compound 118 within plasma between male and female SOD-1 mice. […] Given the sex difference in clearance, it will be necessary to increase the amount that male SOD-1 mice are dosed compared to females SOD-1 mice in order maintain parity in exposure between the sexes.

[2] = tested on: TDP-43 overexpression in Drosophila motor neurons; assay: TDP-43 Drosophila model of ALS, larval turning read-out (Example 23); assay type: in vivo; conditions: 1 microMolar, TDP-43 (wild-type and G298S) overexpression, vs. DMSO vehicle
Experimental: Procedure: UAS TDP-43 male Drosophila flies were crossed with D42-Gal4 female virgins on fly food containing either DMSO or 1% Compound 118 in dimethyl sulfoxide (DMSO). For DMSO controls, the same volume of DMSO as the corresponding Compound 118 concentration was added. Bromophenol blue was added to a final concentration of around 0.02% to ensure homogeneity. Crosses were made on drug food with three female virgins and two males in each vial and were maintained at 25° C. unless noted. The parents were discarded after 5-7 days and then the vials were screened for adult progeny with straight wings from Day 14 to Day 25. All adults were screened for TDP-43 expression by visualizing the YFP tag. Total number of pupae was counted on Day 25. Percent survival was calculated using the formula (total number of straight-winged adults/total number of pupae)×100. All experiments were performed in triplicate. Read-outs include larval turning assay and pupil lethality screen.
TDP^WT=Wild-type TDP-43, TDP^G298S=Diseases associated G298S mutant expressed in motor neurons. […], ***p<0.001 as compared to DMSO as vehicle.

[3] = Solubility testing (Example 27); assay type: physicochemical
[4] = female, plasma, 200 mg/kg, Female SOD-1 mice, BID
[5] = female, plasma, 200 mg/kg, Female SOD-1 mice, SID
[6] = male, plasma, 200 mg/kg, Male SOD-1 mice, BID
[7] = male, plasma, 200 mg/kg, Male SOD-1 mice, SID

## [2H]C([2H])([2H])c1ccc(C#Cc2ccc(S(=O)(=O)N[C@H](Cc3c[nH]c4ccccc34)C(=O)O)s2)cc1 [Compound 118, (R)-3-(1H-Indol-3-yl)-2-[5-(4-trideuteromethyl-phenylethynyl)-thiophene-2-sulfonylamino]-propionic acid-(D3, 98%)]
[1]; 200 mg/Kg PO, plasma
  AUC in Female SOD-1 mice relative to male SOD-1 mice: 3-4 times
[1]; SOD-1 mice, 200 mg/Kg PO, T=2 hour from last dose on third day
  concentration in the spinal cord: 200-400 ng of AQU-118/gram spinal tissue
[1]; SOD-1 mice, 200 mg/Kg PO, 200 mg/kg
  oral bioavailability in plasma: good oral bioavailability
[1]; SOD-1 mice, 200 mg/Kg PO, listed as AQU-118, 200 mg/kg
  oral bioavailability in plasma: good bioavailability in plasma
[1]; [4]
  AUC: 394 µg·h/mL
  Cmax: 111 µg/mL
[1]; [5]
  AUC: 342 µg·h/mL
  Cmax: 96 µg/mL
[1]; [6]
  AUC: 115 µg·h/mL
  Cmax: 39.1 µg/mL
[1]; [7]
  AUC: 121 µg·h/mL
  Cmax: 44.5 µg/mL
[2]
  locomotive defects via larval turning times: able to mitigate locomotive defects
[3]
  solubility in DMSO, acetone and methanol: soluble
[3]; as the free acid
  solubility in water: poorly soluble
